Results reported in patent US20170281728A1, “METHOD FOR TREATING CANCER USING TETRADRINE” (Board of Supervisors of Louisiana State University and …, priority 2016, published 2017).

Columns and labels:
C4-2b cells = test: Cytotoxicity by crystal violet staining and MTT survival assay, C4-2b cells; assay type: cell-based; settings: for response of cells following exposure to the agent alone: TRAIL or TNF-α alone
Protocol: (§1) LNCaP and C4-2b cells were used as model cell lines that show resistance to TRAIL. […] In the present study we evaluated the effects of TET alone or in combination with TRAIL and TNF-α. Prostate cancer cell lines LNCaP and LNCaP derived C4-2b were used for this study. Cell lines were treated with TET, TRAIL, or TNF-αalone or in various combinations for different time points. mRNA expression was quantitated via Real Time-PCR and changes in protein expression were analyzed by Western Blot analysis. Cytotoxicity was evaluated using the Crystal violet and MTT survival assay.
(§2) Turning to FIGS. 12-15, pretreatment of both cell lines with TET for 12 hours, followed by TRAIL and TNF-α treatment for another 24 hours increased the apoptosis inducing potential of TRAIL and TNF-α in these cells. […] For FIGS. 12 and 14, LNCap (FIG. 12) and C4-2b (FIG. 14) cells treated with or without TET, TRAIL, and TNFα were crystal violet stained. Wells are representative of at least three repeats. For FIGS. 13 and 15, LNCap (FIG. 13) and C4-2b (FIG. 15) cells were subjected to MTT assay using the same experimental plan as in FIGS. 12, 14 respectively. Data were normalized to the untreated control at the respective concentrations of TET, TRAIL and TNF-α. Data are representative of at least three repeats.

LNCaP cells = test: Cytotoxicity by crystal violet staining and MTT survival assay, LNCaP cells; assay type: cell-based; settings: for response of cells following exposure to the agent alone: TRAIL or TNF-α alone
Protocol: as §1, §2

DR5 [1] = test: DR5 protein level (array / western blot densitometry), LNCaP cells; assay type: cell-based; settings: 20 μM TET, versus untreated cells
Protocol: (§3) LNCaP and C4-2b cells were used as model cell lines that show resistance to TRAIL. […] In the present study we evaluated the effects of TET alone or in combination with TRAIL and TNF-α. Prostate cancer cell lines LNCaP and LNCaP derived C4-2b were used for this study. Cell lines were treated with TET, TRAIL, or TNF-αalone or in various combinations for different time points. mRNA expression was quantitated via Real Time-PCR and changes in protein expression were analyzed by Western Blot analysis. Cytotoxicity was evaluated using the Crystal violet and MTT survival assay. […] LNCaP cells were either untreated or treated with 20 μM TET for 24 hours. Arrays were incubated with 400 μg of each cell lysate. Data shown in FIG. 1 are from a 1 minute exposure to X-ray film. […] Fold increase was calculated with the density of untreated LNCaP cells as a reference. Averages are representative of 2 independent experiments. Error bars represent standard deviation. Turning to FIGS. 2A-2C, C4-2b cells were treated with 20 μM TET for 0-48 hours. After the treatments cells were lysed and DR4, DR5 and TNFR1 levels were detected by western blotting. Similarly, in FIGS. 3-5, densiomentry fold increase for DR4, DR5 and TNFR1 western blots is shown. The fold increase was calculated with the density of untreated LNCaP cells as a reference. GAPDH was used as loading control. […]

DR5 [2] = test: DR5 mRNA expression by reverse transcriptase PCR, C4-2b cells; assay type: cell-based; settings: 20 μM Tet, 0-48 hours, normalized to GAPDH
Protocol: as §1, with “assay. Turning to FIGS. 6-11, LNCaP and C4-2b cells were incubated in the presence of 20 μM of Tet for different time points (0-48 hours). Total RNA was prepared from the cells and cDNA was transcribed. Reverse transcriptase PCR was performed to determine the mRNA levels of DR4, DR5 and TNF-α. GAPDH was used for normalization. Each data point represents mean+/−standard deviation of three independent gels.” for “assay.”

DR4 [3] = test: DR4 mRNA expression by reverse transcriptase PCR, C4-2b cells; assay type: cell-based; settings: 20 μM Tet, 0-48 hours, normalized to GAPDH
Protocol: as §1, with “assay. Turning to FIGS. 6-11, LNCaP and C4-2b cells were incubated in the presence of 20 μM of Tet for different time points (0-48 hours). Total RNA was prepared from the cells and cDNA was transcribed. Reverse transcriptase PCR was performed to determine the mRNA levels of DR4, DR5 and TNF-α. GAPDH was used for normalization. Each data point represents mean+/−standard deviation of three independent gels.” for “assay.”

DR4 [4] = test: DR4 mRNA expression by reverse transcriptase PCR, LNCaP cells; assay type: cell-based; settings: 20 μM Tet, 0-48 hours, normalized to GAPDH
Protocol: as §1, with “assay. Turning to FIGS. 6-11, LNCaP and C4-2b cells were incubated in the presence of 20 μM of Tet for different time points (0-48 hours). Total RNA was prepared from the cells and cDNA was transcribed. Reverse transcriptase PCR was performed to determine the mRNA levels of DR4, DR5 and TNF-α. GAPDH was used for normalization. Each data point represents mean+/−standard deviation of three independent gels.” for “assay.”

DR4 [5] = test: DR4 protein level (array / western blot densitometry), LNCaP cells; assay type: cell-based; settings: 20 μM TET, versus untreated cells
Protocol: as §3

TNFR1 [6] = test: TNFR1 mRNA expression by reverse transcriptase PCR, LNCaP cells; assay type: cell-based; settings: 20 μM Tet, 0-48 hours, normalized to GAPDH
TNFR1 [7] = test: TNFR1 mRNA expression by reverse transcriptase PCR, C4-2b cells; assay type: cell-based; settings: 20 μM Tet, 0-48 hours, normalized to GAPDH
DR5 [8] = test: DR5 mRNA expression by reverse transcriptase PCR, LNCaP cells; assay type: cell-based; settings: 20 μM Tet, 0-48 hours, normalized to GAPDH
Protocol: as §1, with “assay. Turning to FIGS. 6-11, LNCaP and C4-2b cells were incubated in the presence of 20 μM of Tet for different time points (0-48 hours). Total RNA was prepared from the cells and cDNA was transcribed. Reverse transcriptase PCR was performed to determine the mRNA levels of DR4, DR5 and TNF-α. GAPDH was used for normalization. Each data point represents mean+/−standard deviation of three independent gels.” for “assay.”

prostate cancer cells [9] = test: Apoptosis in prostate cancer cells in vivo
DR4 [10] = test: DR4 protein level by western blotting, C4-2b cells; assay type: cell-based; settings: 20 μM TET, 0-48 hours, GAPDH loading control
Protocol: (§4) LNCaP and C4-2b cells were used as model cell lines that show resistance to TRAIL. […] In the present study we evaluated the effects of TET alone or in combination with TRAIL and TNF-α. Prostate cancer cell lines LNCaP and LNCaP derived C4-2b were used for this study. Cell lines were treated with TET, TRAIL, or TNF-αalone or in various combinations for different time points. mRNA expression was quantitated via Real Time-PCR and changes in protein expression were analyzed by Western Blot analysis. Cytotoxicity was evaluated using the Crystal violet and MTT survival assay. Turning to FIGS. 2A-2C, C4-2b cells were treated with 20 μM TET for 0-48 hours. After the treatments cells were lysed and DR4, DR5 and TNFR1 levels were detected by western blotting. Similarly, in FIGS. 3-5, densiomentry fold increase for DR4, DR5 and TNFR1 western blots is shown. The fold increase was calculated with the density of untreated LNCaP cells as a reference. GAPDH was used as loading control. Averages are representative of 3 independent experiments. Error bars represent standard deviation.

DR5 [11] = test: DR5 protein level by western blotting, C4-2b cells; assay type: cell-based; settings: 20 μM TET, 0-48 hours, GAPDH loading control
Protocol: as §4

TNFR1 [12] = test: TNFR1 protein level by western blotting, C4-2b cells; assay type: cell-based; settings: 20 μM TET, 0-48 hours, GAPDH loading control
Protocol: as §4

prostate cancer cells [13] = test: Apoptosis in prostate cancer cells in vitro; assay type: cell-based
TNFR1 [14] = test: TNFR1 protein level (array / western blot densitometry), LNCaP cells; assay type: cell-based; settings: 20 μM TET, versus untreated cells
Protocol: as §3

[15] = TET pretreatment 12 hours, then TRAIL and TNF-α for another 24 hours

Molecule | response of cells following exposure to the agent alone (C4-2b cells) | response of cells following exposure to the agent alone (LNCaP cells) | protein level of DR5 (DR5 [1]) | mRNA level of DR5 (DR5 [2]) | mRNA level of DR4 (DR4 [3]) | mRNA level of DR4 (DR4 [4]) | protein level of DR4 (DR4 [5]) | apoptosis inducing potential of TRAIL and TNF-α after TET pretreatment (C4-2b cells; [15]) | apoptosis response to soluble h-TRAIL and TNF-α in combination with TET (C4-2b cells; TET treated cells in vitro) | mRNA level of TNFR1 (TNFR1 [6]) | mRNA level of TNFR1 (TNFR1 [7]) | mRNA level of DR5 (DR5 [8]) | apoptosis in prostate cancer cells (prostate cancer cells [9]) | protein level of DR4 (DR4 [10]) | protein level of DR5 (DR5 [11]) | protein level of TNFR1 (TNFR1 [12]) | apoptosis in prostate cancer cells (prostate cancer cells [13]) | apoptosis inducing potential of TRAIL and TNF-α after TET pretreatment (LNCaP cells; [15]) | apoptosis response to soluble h-TRAIL and TNF-α in combination with TET (LNCaP cells; TET treated cells in vitro) | protein level of TNFR1 (TNFR1 [14])
TNF-α | did not show a significant response | did not show a significant response | – | – | – | – | – | – | – | – | – | – | – | – | – | – | – | – | – | –
COc1ccc2cc1Oc1ccc(cc1)C[C@H]1c3cc(c(OC)cc3CCN1C)Oc1c(OC)c(OC)cc3c1[C@H](C2)N(C)CC3 [TET, Tetrandrine] | – | – | increased | increased | increased | increased | increased | increased | synergistic apoptosis response | increased | increased | increased | promotes apoptosis | increased | increased | increased | promotes apoptosis | increased | synergistic apoptosis response | increased
TRAIL: protein functioning as a ligand that induces apoptosis; cytokine binding death receptors DR4 and DR5 (protein, UniProt P50591 1-281, looked up) Tumor necrosis factor ligand …: MAMMEVQGGPSLGQTCVLIVIFTVLLQSLCVAVTYVYFTNELKQMQDKYSKSGIACFLKEDDSYWDPNDEESMNSPCWQVKWQLRQLVRKMILRTSEETISTVQEKQQNISPLVRERGPQRVAAHITGTRGRSNTLSSPNSKNEKALGRKINSWESSRSGHSFLSNLHLRNGELVIHEKGFYYIYSQTYFRFQEEIKENTKNDKQMVQYIYKYTSYPDPILLMKSARNSCWSKDAEYGLYSIYQGGIFELKENDRIFVSVTNEHLIDMDHEASFFGAFLVG | did not show a significant response | did not show a significant response | – | – | – | – | – | – | – | – | – | – | – | – | – | – | – | – | – | –
